In patent publication US20220096376A1, “DRUG DELIVERY PLATFORM USING W/O/W-TYPE TRIOLEIN EMULSION PROMOTIVE OF BLOOD-BRAIN BARRIER OPENING” (PUSAN NATIONAL UNIVERSITY INDUSTRY-UNIVERSITY COOPERATION …, priority 2019, published 2022):
Several values for one entry are separate records, joined by “and”; a condition that tells them apart may be missing. Equal values may be shown once.

Assay: Confirmation of drug delivery activity to brain (doxorubicin concentration by fluorometer)
Format: in vivo
Details: rabbit
Description: A triolein emulsion having a W/O/W double structure and an average particle diameter of 7 μm was prepared in the same manner as described above. After diluting by mixing 0.2 ml (2%) of the emulsion in 10 ml of physiological saline, 7 ml of the emulsion diluted in the same procedure as in the experiment in which the trypan blue was added to 1.7 kg male rabbits distributed from Semtako and doxorubicin, a water-soluble drug, were injected, and 2 hours later, the brain of the rabbit was excised and the concentration of doxorubicin was measured using a fluorometer. At this time, three brain tissues were taken off and measured three times.

[1] = 7 ml diluted W/O/W triolein emulsion and doxorubicin injected, 2 hours later, single measurements
[2] = with W/O/W triolein emulsion, 2 hours, Average

Doxorubicin concentration in the left brain (RFU) [2]: 73.56 RFU
Doxorubicin concentration in the right brain (RFU) [2]: 439.11 RFU
Right brain doxorubicin/left brain doxorubicin ratio [2]: 6.12
SMILES: COc1cccc2c1C(=O)c1c(O)c3c(c(O)c1C2=O)C[C@@](O)(C(=O)CO)C[C@@H]3O[C@H]1C[C@H](N)[C@H](O)[C@H](C)O1 [Doxorubicin, doxorubicin]
Doxorubicin concentration in the left brain (RFU) [1]: 64 RFU and 77 RFU and 89 RFU and 78 RFU and 65 RFU and 70 RFU and 53 RFU and 88 RFU
Doxorubicin concentration in the right brain (RFU) [1]: 420 RFU and 445 RFU and 431 RFU and 444 RFU and 455 RFU and 464 RFU and 437 RFU and 428 RFU
